This passage reports IC50 results from patent US8163921B2, “Hepatitis C virus inhibitors” (Bristol-Myers Squibb Company, priority 2008, dated 2012).

One may read the IC50 as the concentration that inhibits the measured activity by half.

The target of the first test is T1, HCV NS3/4A protease complex, BMS strain (UniProt P27958, C1454S/C1711G, species not given).
T1 construct: other: HCV NS3/4A enzyme assay; class symbols; numeric values; fused on or other part: three-lysine solubilising tail at the C-terminus of NS4A; purified on Ni-NTA from the pET21b vector (His tag implied)
Nature of the test: FRET peptide assay to monitor HCV NS3/4A proteolytic activity (BMS strain). Type of test: biochemical, HCV genotype 1a. The note with it: read-out: IC50 Range; HCV NS3/4A enzyme assay; class symbols. The source says: HCV NS3 protease complexes, derived from the BMS strain, H77 strain or J4L6S strain, were generated, as described below. These purified recombinant proteins were generated for use in a homogeneous assay (see below) to provide an indication of how effective compounds of the present disclosure would be in inhibiting HCV NS3 proteolytic activity.
Serum from an HCV-infected patient was obtained from Dr. T. Wright, San Francisco Hospital. An engineered full-length cDNA (compliment deoxyribonucleic acid) template of the HCV genome (BMS strain) was constructed from DNA fragments obtained by reverse transcription-PCR (RT-PCR) of serum RNA (ribonucleic acid) and using primers selected on the basis of homology between other genotype 1a strains. From the determination of the entire genome sequence, a genotype 1a was assigned to the HCV isolate according to the classification of Simmonds et al. (See P Simmonds, K A Rose, S Graham, S W Chan, F McOmish, B C Dow, E A Follett, P L Yap and H Marsden, J. Clin. Microbiol., 31(6), 1493-1503 (1993)). […] The infectious clones, H77 (1a genotype) and J4L6S (1b genotype) were obtained from R. Purcell (NIH) and the sequences are published in Genbank (AAB67036, see Yanagi, M., Purcell, R. H., Emerson, S. U. and Buldi, J. Proc. Natl. Acad. Sci. U.S.A. 94(16),8738-8743 (1997); AF054247, see Yanagi, M., St Claire, M., Shapiro, M., Emerson, S. U., Purcell, R. H. and Bukh, J, Virology 244 (1), 161-172. (1998)).
NS3/4A protease complex-containing fractions were pooled and loaded on a desalting column Superdex-S200 pre-equilibrated with buffer D (25 mM HEPES, pH 7.5, 20% glycerol, 300 mM NaCl, 0.2% TritonX-100, 10 mM βMB). Sample was loaded at a flow rate of 1 mL/min. NS3/4A protease complex-containing fractions were pooled and concentrated to approximately 0.5 mg/ml. The purity of the NS3/4A protease complexes, derived from the BMS, H77 and J4L6S strains, were judged to be greater than 90% by SDS-PAGE and mass spectrometry analyses. The enzyme was stored at −80° C., thawed on ice and diluted prior to use in assay buffer.
The purpose of this in vitro assay was to measure the inhibition of HCV NS3 protease complexes, derived from the BMS strain, H77 strain or J4L6S strain, as described above, by compounds of the present disclosure. This assay provides an indication of how effective compounds of the present disclosure would be in inhibiting HCV NS3 proteolytic activity.
In order to monitor HCV NS3/4A protease activity, an NS3/4A peptide substrate was used. The substrate was RET S1 (Resonance Energy Transfer Depsipeptide Substrate; AnaSpec, Inc. cat #22991)(FRET peptide), described by Taliani et al. in Anal. Biochem. 240(2):60-67 (1996). The sequence of this peptide is loosely based on the NS4A/NS4B natural cleavage site for the HCV NS3 protease except there is an ester linkage rather than an amide bond at the cleavage site. The peptide also contains a fluorescence donor, EDANS, near one end of the peptide and an acceptor, DABCYL, near the other end. The fluorescence of the peptide is quenched by […] resonance energy transfer (RET) between the donor and the acceptor, but as the NS3 protease cleaves the peptide the products are released from RET quenching and the fluorescence of the donor becomes apparent.
The peptide substrate was incubated with one of the three recombinant NS3/4A protease complexes, in the absence or presence of a compound of the present disclosure. The inhibitory effects of a compound were determined by monitoring the formation of fluorescent reaction product in real time using a Cytofluor Series 4000.
Assay buffer: 50 mM HEPES, pH 7.5; 0.15 M NaCl; 0.1% Triton; 15% Glycerol; 10 mM βME. Substrate: 2 μM final concentration (from a 2 mM stock solution in DMSO stored at −20° C.). HCV NS3/4A protease type 1a (1b), 2-3 nM final concentration (from a 5 μM stock solution in 25 mM HEPES, pH 7.5, 20% glycerol, 300 mM NaCl, 0.2% Triton-X100, 10 mM βME). […]
As to `C=C[C@@H]1C[C@]1(NC(=O)[C@@H]1C[C@@H](Oc2ncc(OC)c3ccc(Cl)cc23)CN1C(=O)[C@@H](Nc1nc(-c2cc(F)c(F)cc2F)cs1)C(C)(C)C)C(=O)NS(=O)(=O)C1CC1` [Example 81], the IC50 fell in the range of 0.001 to 0.02 µM. Still for that read-out and setting: then `C=C[C@@H]1C[C@]1(NC(=O)[C@@H]1C[C@@H](Oc2ncc(OC)c3ccc(Cl)cc23)CN1C(=O)[C@@H](Nc1nc(-c2cc(F)cc(F)c2)cs1)C(C)(C)C)C(=O)NS(=O)(=O)C1CC1` [Example 66], with 0.001 to 0.02 µM; and `C=C[C@@H]1C[C@]1(NC(=O)[C@@H]1C[C@@H](Oc2ncc(OC)c3ccc(Cl)cc23)CN1C(=O)[C@@H](Nc1nc(-c2cccc(C(F)(F)F)c2F)cs1)C(C)(C)C)C(=O)NS(=O)(=O)C1CC1` [Example 72], with 0.001 to 0.02 µM.

On to `C=C[C@@H]1C[C@]1(NC(=O)[C@@H]1C[C@@H](Oc2ccc(OC)c3ccc(Cl)cc23)CN1C(=O)[C@@H](Nc1nc(-c2ccc(C(F)(F)F)cc2F)cs1)C(C)(C)C)C(=O)NS(=O)(=O)C1CC1` [Example 73], for which the IC50 lay within 0.001 to 0.02 µM. Same read-out and setting: the value for `C=C[C@@H]1C[C@]1(NC(=O)[C@@H]1C[C@@H](Oc2ncc(OC)c3ccc(Cl)cc23)CN1C(=O)[C@@H](Nc1nc(-c2ccc(O)cc2)cs1)C(C)(C)C)C(=O)NS(=O)(=O)C1CC1` [Example 60] was 0.001 to 0.02 µM; that for `C=C[C@@H]1C[C@]1(NC(=O)[C@@H]1C[C@@H](Oc2ncc(OC)c3ccc(Cl)cc23)CN1C(=O)[C@@H](Nc1nc(-c2ccc(C)c(C)c2)cs1)C(C)(C)C)C(=O)NS(=O)(=O)C1CC1` [Example 63] was 0.001 to 0.02 µM; that for `C=C[C@@H]1C[C@]1(NC(=O)[C@@H]1C[C@@H](Oc2ncc(OC)c3ccc(Cl)cc23)CN1C(=O)[C@@H](Nc1nc(-c2cc(C)ccc2OC(F)F)cs1)C(C)(C)C)C(=O)NS(=O)(=O)C1CC1` [Example 78] was 0.001 to 0.02 µM. The same measure, in the same setting: the value for `C=C[C@@H]1C[C@]1(NC(=O)[C@@H]1C[C@@H](Oc2ncc(OC)c3ccc(Cl)cc23)CN1C(=O)[C@@H](Nc1nc(-c2ccc(C(F)(F)F)c(F)c2)cs1)C(C)(C)C)C(=O)NS(=O)(=O)C1CC1` [Example 75] was 0.001 to 0.02 µM; that for `C=C[C@@H]1C[C@]1(NC(=O)[C@@H]1C[C@@H](Oc2ncc(OC)c3ccc(Cl)cc23)CN1C(=O)[C@@H](Nc1nc(-c2ccc(S(C)(=O)=O)cc2)cs1)C(C)(C)C)C(=O)NS(=O)(=O)C1CC1` [Example 89] was 0.001 to 0.02 µM.

Regarding `C=C[C@@H]1C[C@]1(NC(=O)[C@@H]1C[C@@H](Oc2ncc(OC)c3ccc(Cl)cc23)CN1C(=O)[C@@H](Nc1nc(-c2cccc(C(F)(F)F)c2)cs1)C(C)(C)C)C(=O)NS(=O)(=O)C1CC1` [Example 94], the 50% inhibitory concentration (IC50) was 0.001 to 0.02 µM.

In the case of `C=C[C@@H]1C[C@]1(NC(=O)[C@@H]1C[C@@H](Oc2ncc(OC)c3ccc(Cl)cc23)CN1C(=O)[C@@H](Nc1nc(-c2ccc(OCC)cc2)cs1)C(C)(C)C)C(=O)NS(=O)(=O)C1CC1` [Example 65], the IC50 was 0.001 to 0.02 µM. In the case of `C=C[C@@H]1C[C@]1(NC(=O)[C@@H]1C[C@@H](Oc2ncc(OC)c3ccc(Cl)cc23)CN1C(=O)[C@@H](Nc1nc(-c2sc3ccccc3c2C)cs1)C(C)(C)C)C(=O)NS(=O)(=O)C1CC1` [Example 84], the IC50 lay within 0.001 to 0.02 µM.

`C=C[C@@H]1C[C@]1(NC(=O)[C@@H]1C[C@@H](Oc2ncc(OC)c3ccc(Cl)cc23)CN1C(=O)[C@@H](Nc1nc(-c2ccc(Oc3ccccc3)cc2)cs1)C(C)(C)C)C(=O)NS(=O)(=O)C1CC1` [Example 91]: the IC50 was 0.001 to 0.02 µM. For `C=C[C@@H]1C[C@]1(NC(=O)[C@@H]1C[C@@H](Oc2ncc(OC)c3ccc(Cl)cc23)CN1C(=O)[C@@H](Nc1nc(-c2cccc(F)c2F)cs1)C(C)(C)C)C(=O)NS(=O)(=O)C1CC1` [Example 80], the IC50 was in the range of 0.001 to 0.02 µM. For `C=C[C@@H]1C[C@]1(NC(=O)[C@@H]1C[C@@H](Oc2ncc(OC)c3ccc(Cl)cc23)CN1C(=O)[C@@H](Nc1nc(-c2ccccc2OC(F)(F)F)cs1)C(C)(C)C)C(=O)NS(=O)(=O)C1CC1` [Example 67], the IC50 lay in the range of 0.02 to 0.2 µM. As to `C=C[C@@H]1C[C@]1(NC(=O)[C@@H]1C[C@@H](Oc2ncc(OC)c3ccc(Cl)cc23)CN1C(=O)[C@@H](Nc1nc(-c2c(F)cccc2F)cs1)C(C)(C)C)C(=O)NS(=O)(=O)C1CC1` [Example 83], the concentration for half-maximal inhibition (IC50) lay within 0.001 to 0.02 µM. In the case of `C=C[C@@H]1C[C@]1(NC(=O)[C@@H]1C[C@@H](Oc2ncc(OC)c3ccc(Cl)cc23)CN1C(=O)[C@@H](Nc1nc(-c2cc(-c3ccc(Cl)cc3)no2)cs1)C(C)(C)C)C(=O)NS(=O)(=O)C1CC1` [Example 88], the IC50 was in the range of 0.001 to 0.02 µM.

Consider `C=C[C@@H]1C[C@]1(NC(=O)[C@@H]1C[C@@H](Oc2ncc(OC)c3ccc(Cl)cc23)CN1C(=O)[C@@H](Nc1nc(-c2c(F)cccc2C(F)(F)F)cs1)C(C)(C)C)C(=O)NS(=O)(=O)C1CC1` [Example 71], for which the IC50 lay within 0.02 to 0.2 µM.

On to `C=C[C@@H]1C[C@]1(NC(=O)[C@@H]1C[C@@H](Oc2ncc(OC)c3ccc(Cl)cc23)CN1C(=O)[C@@H](Nc1nc(-c2ccc(F)cc2F)c(C)s1)C(C)(C)C)C(=O)NS(=O)(=O)C1CC1` [Example 82], for which the IC50 is 0.001 to 0.02 µM. Same read-out and setting: then `C=C[C@@H]1C[C@]1(NC(=O)[C@@H]1C[C@@H](Oc2ncc(OC)c3ccc(Cl)cc23)CN1C(=O)[C@@H](Nc1nc(-c2cc3ccccc3o2)cs1)C(C)(C)C)C(=O)NS(=O)(=O)C1CC1` [Example 87], with 0.001 to 0.02 µM; and `C=C[C@@H]1C[C@]1(NC(=O)[C@@H]1C[C@@H](Oc2ncc(OC)c3ccc(Cl)cc23)CN1C(=O)[C@@H](Nc1nc(-c2cc(C(F)(F)F)ccc2Cl)cs1)C(C)(C)C)C(=O)NS(=O)(=O)C1CC1` [Example 69], with 0.001 to 0.02 µM; and `C=C[C@@H]1C[C@]1(NC(=O)[C@@H]1C[C@@H](Oc2ncc(OC)c3ccc(Cl)cc23)CN1C(=O)[C@@H](Nc1nc(-c2cc(Cl)ccc2Cl)cs1)C(C)(C)C)C(=O)NS(=O)(=O)C1CC1` [Example 76], with 0.001 to 0.02 µM.

The test is the same for the next values; noted with them: read-out: IC50 Range; HCV NS3/4A enzyme assay; numeric values.
Regarding `C=C[C@@H]1C[C@]1(NC(=O)[C@@H]1C[C@@H](Oc2ncc(OC)c3ccc(Cl)cc23)CN1C(=O)[C@@H](Nc1nc(-c2ccc(C(F)(F)F)cc2C(F)(F)F)cs1)C(C)(C)C)C(=O)NS(=O)(=O)C1CC1` [Example 70], the IC50 is 0.089 µM.

In the case of `C=C[C@@H]1C[C@]1(NC(=O)[C@@H]1C[C@@H](Oc2ncc(OC)c3ccc(Cl)cc23)CN1C(=O)[C@@H](Nc1nc(-c2ccccc2C(F)(F)F)cs1)C(C)(C)C)C(=O)NS(=O)(=O)C1CC1` [Example 95], the IC50 is 0.017 µM. With `C=C[C@@H]1C[C@]1(NC(=O)[C@@H]1C[C@@H](Oc2ncc(OC)c3ccc(Cl)cc23)CN1C(=O)[C@@H](Nc1nc(-c2cc(-c3ccc(Cl)cc3Cl)no2)cs1)C(C)(C)C)C(=O)NS(=O)(=O)C1CC1` [Example 86], the IC50 came out at 0.002 µM. `C=C[C@@H]1C[C@]1(NC(=O)[C@@H]1C[C@@H](Oc2ncc(OC)c3ccc(Cl)cc23)CN1C(=O)C(Nc1ccc(-c2ccccc2)c(OC)c1)C(C)(C)C)C(=O)NS(=O)(=O)C1CC1` (single isomer, unassigned) [Example 18B]: the IC50 amounted to 2.5 µM. As for `C=C[C@@H]1C[C@]1(NC(=O)[C@@H]1C[C@@H](Oc2ccc(OC)c3ccc(Cl)cc23)CN1C(=O)[C@@H](Nc1nc(-c2ccc(F)c(C(F)(F)F)c2)cs1)C(C)(C)C)C(=O)NS(=O)(=O)C1CC1` [Example 74], the IC50 came to 0.002 µM.
